Results as given in patent US8252832B2, “Kinesin inhibitors as cancer therapeutics” (Novartis AG, priority 2007, dated 2012).
Marks after values point to notes of the source that are not given here.

Key:
Type in all cases: in vivo, mouse
HCT116 tumor xenograft = HCT116 tumor xenograft model, tumor response
Protocol: The cell line HCT-116 has been widely used in the evaluation of mitotic inhibitors such as microtubule disruptors, mitotic kinase inhibitors and KSP inhibitors. […] Experiments were performed using outbred athymic nu/nu mice approximately 6-8 weeks old (Charles River Laboratories, Hollister, Calif.). […] Mice were housed 4-5 animals per cage in clear polycarbonate micro-isolator cages with a 12-hour light, 12-hour dark cycle at temperatures between 70-80 degrees Fahrenheit and 30-70% relative humidity. Food (Purina rodent chow pellets) and water were provided ad libitum. Mice were handled in accordance with Novartis ACUC regulations and guidelines and the ILAR Guide for the Care and Use of Laboratory Animals. Experiments were performed in an AAALAC accredited facility under an ACUC approved protocol.
Compound IIa (free base) and SB-715992 (ispinesib, a KSP inhibitor by Cytokinetics that is in clinical trials; as its free base) were formulated in 20% Captisol® for all the above doses for a dose volume of 8 mL/kg. Doses were adjusted to each animal's body weight.
Human HCT116 colon carcinoma cells were obtained from the National Cancer Institute's DCTD Tumor Repository (catalog #NCI-502568, Rockville, Md.) and tested to be free of Mycoplasma sp. and murine viruses in the IMPACT1 PCR assay panel (RADIL, University of Missouri, Columbia, Mo.). HCT116 cells were grown in RPMI 1640 with 2 mM L-glutamine (Mediatech Inc., catalog #15-040-CV) supplemented with 10% fetal bovine serum (JRH Biosciences, catalog #12003-1000M). These cells were grown as adherent cultures, maintained at 37° C. in a humidified atmosphere containing 5% carbon dioxide. Cells were cultured for fewer than 10 passages prior to use. Cells were harvested at 95% confluency, and centrifuged at ˜800×g for 5 minutes at 4° C. and then resuspended in a cold HBSS (Mediatech Inc., catalog #21-021-CV) at a concentration of 50 million cells/mL for implantation subcutaneously (injection volume of 0.1 mL).
Female nu/nu mice (Charles River, Hollister, Calif.) were injected subcutaneously in the right flank with 5 million HCT-116 tumor cells suspended in Hank's Balanced Salt Solution (HBSS) in a total volume of 0.1 mL/mouse. For the efficacy studies, mice were randomized 10 days post-implant. […] Tumor volume was calculated as (L×W2)/2. […] Percent treatment/control (T/C) values were calculated using the following formula: % T/C=100×ΔT/ΔC
All data were expressed as mean and SEM. Between-groups comparisons for final tumor measurements were performed using the one-way ANOVA pair-wise analysis. Significance was determined using Kruskal-Wallis one-way ANOVA on Ranks and Dunn's method for multiple pair-wise comparisons. Statistical analysis was carried out using SigmaStat (Systat Software Inc., San Jose, Calif.).

[1] = Subcutaneous MV4; 11 tumor xenograft model, host response
Protocol: Subcutaneous tumor efficacy studies were performed using outbred athymic nu/nu mice approximately 6-8 weeks old (Charles River Laboratories, Hollister, Calif.). The efficacy study in the disseminated disease model was performed using immunodeficient NOD-SCID female mice approximately 7-8 weeks old (Jackson Laboratories, Bar Harbor, Me.). […] Routine animal care and assurance of welfare were as described above.
The compound IIa (free base) and SB-715992 (free base) were formulated in 20% Captisol for a dose volume of 8 mL/kg. Doses were adjusted to each animal's body weight.
For the two efficacy evaluations in the subcutaneous tumor model, 10 million cells combined in a 1:1 mixture of HBSS and Matrigel™ were injected subcutaneously in the right flank in a total volume of 0.2 mL/mouse. […] Tumor volume was calculated as (L×W2)/2.

[2] = test system: human multiple myeloma KMS-11-luc tumor xenografts; assay: Subcutaneous KMS-11-luc tumor xenograft model, tumor response
Protocol: Experiments were performed using immunodeficient SCID-Beige female mice approximately 7-8 weeks old (Charles River Laboratories, Wilmington, Mass.). […] Routine animal care and assurance of welfare were as described above.
Human KMS-11-luc multiple myeloma cells were obtained from the laboratory of Suzanne Trudel at the University of Toronto (Ontario, Canada) and tested to be free of Mycoplasma sp. and murine viruses in the IMPACT1 PCR assay panel (RADIL, University of Missouri, Columbia, Mo.). Prior to our receiving this cell line, it had been stably engineered to express luciferase by retroviral transfection of the pGC-gfp/luc vector. KMS-11-luc cells were grown in Iscove's medium supplemented with 2 mmol/L L-glutamine (Mediatech, Inc., Hemdon, Va.) and 10% fetal bovine serum (JRH Biosciences, catalog #12003-1000M). These cells were grown as suspension cultures, maintained at 37° C. in a humidified atmosphere containing 5% carbon dioxide. Cells were cultured for fewer than 10 passages prior to use. Cells were harvested at approximately 2 million cells/mL, and centrifuged at ˜800×g for 5 minutes at 4° C. and then resuspended in a 1:1 mixture of cold Hank's balanced salt solution (HBSS) and Matrigel™ (Mediatech Inc., catalog #21-021-CV; BD Biosciences, catalog #354234, respectively) at a concentration of 50 million cells/mL for implantation subcutaneously (injection volume of 0.2 mL). Alternatively, for the disseminated disease model, cells were prepared only in cold HBSS at a concentration of 100 million cells/mL for intravenous (i.v.) implantation via the tail vein (injection volume of 0.1 mL).
Compound IIa and SB-715992 (free base) were formulated in 20% Captisol for a dose volume of 8 mL/kg. Doses were adjusted to each animal's body weight.
For the efficacy evaluation in the subcutaneous tumor model, 10 million cells combined in a 1:1 mixture of HBSS and Matrigel™ were injected subcutaneously in the right flank in a total volume of […]. […] Tumor volume was calculated as (L×W2)/2. […] Data analysis was as described above.

## CC(C)(C)[C@H](c1nc(-c2cc(F)ccc2F)cn1Cc1ccccc1)N(CC[C@H](N)CF)C(=O)CO [Compound IIa]
HCT116 tumor xenograft; 0.125 mg/kg, i.v., q4d × 3
  T/C, Day 24 (%): 81%
  Δ Tumor volume, Day 24: 809 ± 193 mm^3
HCT116 tumor xenograft; 0.125 mg/kg, q4d×3
  anti-tumor effect: not significantly different from vehicle control
HCT116 tumor xenograft; 0.25 mg/kg, i.v., q4d × 3
  T/C, Day 24 (%): 35%
  Δ Tumor volume, Day 24: 382 ± 120 mm^3
HCT116 tumor xenograft; 0.5 mg/kg, i.v., q4d × 3
  T/C, Day 24 (%): 14%
  Δ Tumor volume, Day 24: 155 ± 145 mm^3
HCT116 tumor xenograft; 0.5 mg/kg, i.v., q4d × 3, D14
  Max. % Regression (Day): 8%
HCT116 tumor xenograft; 1 mg/kg, i.v., q4d × 3
  Δ Tumor volume, Day 24: −34 ± 36 mm^3
HCT116 tumor xenograft; 1 mg/kg, i.v., q4d × 3, D17
  Max. % Regression (Day): 46%
HCT116 tumor xenograft; 1.25 mg/kg, i.v., q4d × 3
  Δ Tumor volume, Day 17: −173 ± 12 mm^3
HCT116 tumor xenograft; 1.25 mg/kg, i.v., q4d × 3, D20
  Max. % Regression (Day): 66%
HCT116 tumor xenograft; 2 mg/kg, i.v., q4d × 3
  Δ Tumor volume, Day 24: −141 ± 48 mm^3
HCT116 tumor xenograft; 2 mg/kg, i.v., q4d × 3, D21
  Max. % Regression (Day): 73%
HCT116 tumor xenograft; 2.5 mg/kg, i.v., q4d × 3
  Δ Tumor volume, Day 17: −208 ± 17 mm^3
HCT116 tumor xenograft; 2.5 mg/kg, i.v., q4d × 3, D20
  Max. % Regression (Day): 82%
HCT116 tumor xenograft; 5 mg/kg, i.v., q4d × 3 (only first two doses given)
  Δ Tumor volume, Day 17: −196 ± 11 mm^3
HCT116 tumor xenograft; 5 mg/kg, i.v., q4d × 3 (only first two doses given), D20
  Max. % Regression (Day): 73%
HCT116 tumor xenograft; as low as 0.25 mg/kg, q4d×3, during the dosing interval
  anti-tumor effect: tumor stasis
[1]; 0.625 mg/kg, q4d × 3, i.v.
  Survival (alive/total): 4/4
[1]; 4 mg/kg, q4d × 3, i.v.
  Survival (alive/total): 9/9
[1]; Study 2, 0.13 mg/kg, q4d × 3, i.v
  Survival (alive/total): 9/9
[1]; Study 2, 0.25 mg/kg, q4d × 3, i.v
  Survival (alive/total): 9/9
[1]; Study 2, 0.5 mg/kg, q4d × 3, i.v
  Survival (alive/total): 9/9
[1]; Study 2, 1 mg/kg, q4d × 3, i.v
  Survival (alive/total): 9/9
[1]; Study 2, 2 mg/kg, q4d × 3, i.v
  Survival (alive/total): 9/9
[2]; 0.25 mg/kg, Q4d × 3, i.v
  T/C, Day 31 (%): 25%
  Δ Tumor volume, Day 31: 527 ± 152 mm^3
[2]; 0.25 mg/kg, Q4d × 3, i.v, D7
  Max. % Regression (Day): 24 (D7) %
[2]; 0.5 mg/kg, Q4d × 3, i.v
  T/C, Day 31 (%): 10%
  Δ Tumor volume, Day 31: 221 ± 71 mm^3
[2]; 0.5 mg/kg, Q4d × 3, i.v, D10
  Max. % Regression (Day): 42 (D10) %
[2]; 1 mg/kg, Q4d × 3, i.v
  T/C, Day 31 (%): 0.1* %
  Δ Tumor volume, Day 31: 1.5 ± 26 mm^3
[2]; 1 mg/kg, Q4d × 3, i.v, D17, listed as COMPOUND IIa
  Max. % Regression (Day): 56 (D17) %
[2]; 1 mg/kg, Q4d × 3, i.v, D17, listed as compound IIa
  Max. % Regression (Day): 56%

## CC(=O)O[C@H]1C(=O)[C@@]2(C)[C@H]([C@H](OC(=O)c3ccccc3)[C@]3(O)C[C@H](OC(=O)[C@H](O)[C@@H](NC(=O)c4ccccc4)c4ccccc4)C(C)=C1C3(C)C)[C@]1(OC(C)=O)CO[C@@H]1C[C@@H]2O [Paclitaxel, reference compound]
HCT116 tumor xenograft; 30 mg/kg, i.p., q4d × 3
  Δ Tumor volume, Day 17: −80 ± 3 mm^3
HCT116 tumor xenograft; 30 mg/kg, i.p., q4d × 3, D17
  Max. % Regression (Day): 31%
[1]; 1 mg/kg, q4d × 3, i.p.
  Survival (alive/total): 9/9
[2]; 30 mg/kg, Q4d × 3, i.p.
  T/C, Day 31 (%): 30%
  Δ Tumor volume, Day 31: 640 ± 190 mm^3
[2]; 30 mg/kg, Q4d × 3, i.p., D3
  Max. % Regression (Day): 5 (D3) %
